Experiments:
AXL = biological target: T1, AXL (Homo sapiens, UniProt P30530); test: AXL autophosphorylation ELISA in A-172 cells; assay type: cell-based; conditions: Table 3 Cellular Activities, Gas6-stimulated, phospho-AXL ELISA
T1 construct: endogenous in cells; host or cells: A-172 glioblastoma cells (ATCC #CRL-1620)
T1 sequence (P30530 26-894): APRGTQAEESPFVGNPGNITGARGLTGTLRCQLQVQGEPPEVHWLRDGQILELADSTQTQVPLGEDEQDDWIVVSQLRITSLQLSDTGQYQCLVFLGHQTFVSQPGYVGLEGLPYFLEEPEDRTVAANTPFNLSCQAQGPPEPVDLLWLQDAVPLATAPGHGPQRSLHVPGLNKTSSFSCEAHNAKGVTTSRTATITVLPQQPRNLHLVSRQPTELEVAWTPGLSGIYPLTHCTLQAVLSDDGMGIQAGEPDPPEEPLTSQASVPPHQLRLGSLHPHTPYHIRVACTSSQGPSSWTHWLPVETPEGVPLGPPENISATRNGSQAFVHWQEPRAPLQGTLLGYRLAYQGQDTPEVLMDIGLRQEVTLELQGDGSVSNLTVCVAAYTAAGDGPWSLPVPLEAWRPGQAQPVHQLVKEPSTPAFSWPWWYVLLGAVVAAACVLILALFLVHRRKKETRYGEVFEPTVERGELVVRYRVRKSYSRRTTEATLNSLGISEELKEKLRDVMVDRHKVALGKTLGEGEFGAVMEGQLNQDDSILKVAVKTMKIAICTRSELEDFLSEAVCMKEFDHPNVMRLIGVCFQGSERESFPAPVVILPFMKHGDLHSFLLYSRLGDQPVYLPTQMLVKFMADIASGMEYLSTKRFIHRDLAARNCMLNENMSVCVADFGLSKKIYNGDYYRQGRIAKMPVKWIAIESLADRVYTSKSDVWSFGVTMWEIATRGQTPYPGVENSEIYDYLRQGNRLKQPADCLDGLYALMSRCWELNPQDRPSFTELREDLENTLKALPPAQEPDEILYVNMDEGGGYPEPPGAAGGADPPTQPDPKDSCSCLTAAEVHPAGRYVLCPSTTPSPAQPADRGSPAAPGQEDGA
Outline: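 A-172 glioblastoma cells serum-starved 24 h, treated 1 h with compounds (8-point dose curve, 0.3% DMSO), then stimulated with 1 μg/mL Gas6 for 15 min. Lysate phospho-AXL quantified by ELISA against a standard; IC50 from 4-parameter logistic fit, normalised to DMSO and reference-inhibitor controls.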

Met = Met (Homo sapiens, UniProt P08581); test: Met autophosphorylation ELISA in PC-3 cells; assay type: cell-based; parameters: endogenous in cells; host or cells: PC-3 prostate cancer cells (ATCC #CRL-1435); conditions: Table 3 Cellular Activities, HGF-stimulated, phospho-Met ELISA, read-out: c-Met IC50
Outline: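 Serum-starved (3 h) PC-3 cells pre-incubated 1 h with compound (8-point dose curve, 0.3% DMSO), then stimulated with 100 ng/mL recombinant human HGF for 10 min. Lysate phospho-Met (panTyr) measured by sandwich ELISA; IC50 from 4-parameter logistic fit, normalised to DMSO (100%) and reference-inhibitor (0%) controls.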

Chain of Met (P08581 25-1390): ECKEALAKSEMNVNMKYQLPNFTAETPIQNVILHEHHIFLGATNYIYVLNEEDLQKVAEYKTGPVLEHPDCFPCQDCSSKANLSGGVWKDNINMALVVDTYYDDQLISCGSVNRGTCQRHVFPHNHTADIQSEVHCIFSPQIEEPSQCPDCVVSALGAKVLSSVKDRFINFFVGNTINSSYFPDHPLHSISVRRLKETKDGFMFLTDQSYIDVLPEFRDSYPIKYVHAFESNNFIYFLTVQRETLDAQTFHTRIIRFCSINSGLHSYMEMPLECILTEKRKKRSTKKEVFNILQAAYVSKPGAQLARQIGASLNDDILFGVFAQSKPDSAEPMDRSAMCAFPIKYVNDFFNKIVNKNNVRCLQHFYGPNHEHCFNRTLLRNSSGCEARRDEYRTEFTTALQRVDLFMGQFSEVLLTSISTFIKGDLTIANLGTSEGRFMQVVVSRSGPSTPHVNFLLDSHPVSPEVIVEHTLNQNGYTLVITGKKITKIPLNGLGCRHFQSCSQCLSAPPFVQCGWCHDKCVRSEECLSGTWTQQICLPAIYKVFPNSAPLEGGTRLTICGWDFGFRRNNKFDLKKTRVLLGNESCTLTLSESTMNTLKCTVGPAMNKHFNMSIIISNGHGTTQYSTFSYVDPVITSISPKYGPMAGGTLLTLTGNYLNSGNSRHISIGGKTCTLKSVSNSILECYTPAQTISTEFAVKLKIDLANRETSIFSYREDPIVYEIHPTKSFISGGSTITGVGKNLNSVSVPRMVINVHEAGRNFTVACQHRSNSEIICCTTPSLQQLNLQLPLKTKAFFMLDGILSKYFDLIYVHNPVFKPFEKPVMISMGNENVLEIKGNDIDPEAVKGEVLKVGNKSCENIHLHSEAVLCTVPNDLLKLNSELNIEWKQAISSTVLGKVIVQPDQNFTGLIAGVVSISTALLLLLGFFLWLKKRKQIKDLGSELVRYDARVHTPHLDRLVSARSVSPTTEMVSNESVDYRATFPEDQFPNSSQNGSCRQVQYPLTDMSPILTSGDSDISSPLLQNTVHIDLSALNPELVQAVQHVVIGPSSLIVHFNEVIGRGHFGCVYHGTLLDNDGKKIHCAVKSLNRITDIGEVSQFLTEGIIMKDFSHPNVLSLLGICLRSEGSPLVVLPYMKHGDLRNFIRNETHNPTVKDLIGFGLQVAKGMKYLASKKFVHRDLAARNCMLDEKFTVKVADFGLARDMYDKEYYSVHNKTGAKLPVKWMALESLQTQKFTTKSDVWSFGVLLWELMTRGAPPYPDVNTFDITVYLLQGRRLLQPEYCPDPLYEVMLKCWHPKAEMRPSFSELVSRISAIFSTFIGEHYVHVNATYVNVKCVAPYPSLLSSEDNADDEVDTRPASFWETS

| IC50 (AXL) [nM] | IC50 (Met) [nM] | SMILES |
| --- | --- | --- |
| ≤ 100 | ≤ 100 | COc1cc2nccc(Oc3ccc(NC(=O)c4cnc(C)c(-c5ccco5)c4O)cc3)c2nc1OC [Compound 255, N-[4-[(6,7-Dimethoxy-1,5-naphthyridin-4-yl)oxy]phenyl]-5-(furan-2-yl)-4-hydroxy-6-methylpyridine-3-carboxamide] |
| ≤ 100 | ≤ 100 | COCCOc1cc2nccc(Oc3ccc(NC(=O)c4c(C)n(C)c(C)c(-c5coc6ccccc56)c4=O)cc3F)c2nc1OC [Compound 264, 5-(1-Benzofuran-3-yl)-N-[3-fluoro-4-[[6-methoxy-7-(2-methoxyethoxy)-1,5-naphthyridin-4-yl]oxy]phenyl]-1,2,6-trimethyl-4-oxopyridine-3-carboxamide] |
| ≤ 100 | ≤ 100 | CCc1c(C(=O)Nc2ccc(Oc3ccnc4cc(OC)c(OC)nc34)c(F)c2)c(=O)c(-c2ccco2)c(C)n1C [Compound 324, N-[4-[(6,7-Dimethoxy-1,5-naphthyridin-4-yl)oxy]-3-fluorophenyl]-2-ethyl-5-(furan-2-yl)-1,6-dimethyl-4-oxopyridine-3-carboxamide] |
| ≤ 100 | ≤ 100 | CCOc1ccn(-c2ccc(F)cn2)c(=O)c1C(=O)Nc1ccc(Oc2ccnc3cc(OC)c(OC)nc23)cc1 [Compound 244, N-[4-[(6,7-Dimethoxy-1,5-naphthyridin-4-yl)oxy]phenyl]-4-ethoxy-1-(5-fluoropyridin-2-yl)-2-oxopyridine-3-carboxamide] |
| ≤ 100 | ≤ 100 | COc1cc2nccc(Oc3ccc(NC(=O)c4ccc(C)n(-c5ccncc5)c4=O)cc3F)c2nc1OC [Compound 221, N-[4-[(6,7-Dimethoxy-1,5-naphthyridin-4-yl)oxy]-3-fluorophenyl]-6-methyl-2-oxo-1-pyridin-4-ylpyridine-3-carboxamid] |
| ≤ 100 | 300 to 1000 | COc1cc2nccc(Oc3ccc(NC(=O)c4c(C)n(C)c(C)c(-c5coc6ccccc56)c4=O)cc3F)c2nc1OC [Compound 262, 5-(1-Benzofuran-3-yl)-N-[4-[(6,7-dimethoxy-1,5-naphthyridin-4-yl)oxy]-3-fluorophenyl]-1,2,6-trimethyl-4-oxopyridine-3-carboxamide] |
| ≤ 100 | ≤ 100 | COc1cc2nccc(Oc3ccc(NC(=O)c4cccn(-c5ccncc5)c4=O)cc3F)c2nc1OC [Compound 229, N-[4-[(6,7-Dimethoxy-1,5-naphthyridin-4-yl)oxy]-3-fluorophenyl]-2-oxo-1-pyridin-4-ylpyridine-3-carboxamide] |
| ≤ 100 | ≤ 100 | COc1cc2nccc(Oc3ccc(NC(=O)c4c5n(c(C)c(-c6ccsc6)c4=O)CCOC5)cc3F)c2nc1OC [Compound 307, N-[4-[(6,7-Dimethoxy-1,5-naphthyridin-4-yl)oxy]-3-fluorophenyl]-6-methyl-8-oxo-7-thiophen-3-yl-3,4-dihydro-1H-pyrido[2,1-c][1,4]oxazine-9-carboxamide] |
| ≤ 100 | 300 to 1000 | COCCOc1cc2nccc(Oc3ccc(NC(=O)c4c(C)n(C)c(C)c(-c5cc6ccccc6o5)c4=O)cc3F)c2nc1OC [Compound 263, 5-(1-Benzofuran-2-yl)-N-[3-fluoro-4-[[6-methoxy-7-(2-methoxyethoxy)-1,5-naphthyridin-4-yl]oxy]phenyl]-1,2,6-trimethyl-4-oxopyridine-3-carboxamide] |
| ≤ 100 | ≤ 100 | COc1ccc2nccc(Oc3ccc(NC(=O)c4ccc(C)n(-c5ccc(F)cn5)c4=O)cc3F)c2c1 [Compound 49, N-[3-Fluoro-4-(6-methoxyquinolin-4-yl)oxyphenyl]-1-(5-fluoropyridin-2-yl)-6-methyl-2-oxopyridine-3-carboxamide] |
| ≤ 100 | ≤ 100 | COc1cnc2c(Oc3ccc(NC(=O)c4cnc(C)c(-c5cccs5)c4O)cc3)ccnc2c1 [Compound 257, 4-Hydroxy-N-[4-[(7-methoxy-1,5-naphthyridin-4-yl)oxy]phenyl]-6-methyl-5-thiophen-2-ylpyridine-3-carboxamide] |
| ≤ 100 | ≤ 100 | COc1cnc2c(Oc3ccc(NC(=O)c4c(C)ncc(-c5ccccn5)c4O)cc3F)ccnc2c1 [Compound 70, N-[3-Fluoro-4-[(7-methoxy-1,5-naphthyridin-4-yl)oxy]phenyl]-4-hydroxy-2-methyl-5-pyridin-2-ylpyridine-3-carboxamide] |
| ≤ 100 | ≤ 100 | COc1cc2nccc(Oc3ccc(NC(=O)c4c5n(cc(-c6ccoc6)c4=O)CCOC5)cc3F)c2nc1OC [Compound 306, N-[4-[(6,7-Dimethoxy-1,5-naphthyridin-4-yl)oxy]-3-fluorophenyl]-7-(furan-3-yl)-8-oxo-3,4-dihydro-1H-pyrido[2,1-c][1,4]oxazine-9-carboxamide] |
| ≤ 100 | 300 to 1000 | COc1cc2nccc(Oc3ccc(NC(=O)c4c(C)n(C)c(C)c(-c5cc6ccccc6o5)c4=O)cc3F)c2nc1OC [Compound 261, 5-(1-Benzofuran-2-yl)-N-[4-[(6,7-dimethoxy-1,5-naphthyridin-4-yl)oxy]-3-fluorophenyl]-1,2,6-trimethyl-4-oxopyridine-3-carboxamide] |
| ≤ 100 | ≤ 100 | COc1cnc2c(Oc3ccc(NC(=O)c4ccc(C)n(-c5ccc(F)cn5)c4=O)cc3F)ccnc2c1 [Compound 45, N-[3-Fluoro-4-[(7-methoxy-1,5-naphthyridin-4-yl)oxy]phenyl]-1-(5-fluoropyridin-2-yl)-6-methyl-2-oxopyridine-3-carboxamide] |
| ≤ 100 | ≤ 100 | COc1cc2nccc(Oc3ccc(NC(=O)c4ccc(C)n(-c5ccnc(F)c5)c4=O)cc3F)c2nc1OC [Compound 233, N-[4-[(6,7-Dimethoxy-1,5-naphthyridin-4-yl)oxy]-3-fluorophenyl]-1-(2-fluoropyridin-4-yl)-6-methyl-2-oxopyridine-3-carboxamide] |
| ≤ 100 | ≤ 100 | COc1cc2nccc(Oc3ccc(NC(=O)c4ccc(C)n(-c5ccc(F)cn5)c4=O)cc3F)c2nc1OC [Compound 43, N-[4-[(6,7-Dimethoxy-1,5-naphthyridin-4-yl)oxy]-3-fluorophenyl]-1-(5-fluoropyridin-2-yl)-6-methyl-2-oxopyridine-3-carboxamide] |
| ≤ 100 | ≤ 100 | COc1cnc2c(Oc3ccc(NC(=O)c4c(C)n(C)cc(-c5ccc(F)cn5)c4=O)cc3F)ccnc2c1 [Compound 73, N-[3-Fluoro-4-[(7-methoxy-1,5-naphthyridin-4-yl)oxy]phenyl]-5-(5-fluoropyridin-2-yl)-1,2-dimethyl-4-oxopyridine-3-carboxamide] |
| ≤ 100 | 100 to 300 | COc1cc2nccc(Oc3ccc(NC(=O)c4c5n(cc(-c6cc(C)cs6)c4=O)CCOC5)cc3)c2nc1OC [Compound 303, N-[4-[(6,7-Dimethoxy-1,5-naphthyridin-4-yl)oxy]phenyl]-7-(4-methylthiophen-2-yl)-8-oxo-3,4-dihydro-1H-pyrido[2,1-c][1,4]oxazine-9-carboxamide] |
| ≤ 100 | ≤ 100 | COc1cc2nccc(Oc3ccc(NC(=O)c4cn(C)c(C)c(-c5ccc(F)cn5)c4=O)cc3)c2nc1OC [Compound 86, N-[4-[(6,7-Dimethoxy-1,5-naphthyridin-4-yl)oxy]phenyl]-5-(5-fluoropyridin-2-yl)-1,6-dimethyl-4-oxopyridine-3-carboxamide] |
| ≤ 100 | ≤ 100 | COc1cnc2c(Oc3ccc(NC(=O)c4c(C)nc(C)c(-c5ccc(F)cn5)c4O)cc3F)ccnc2c1 [Compound 217, N-[3-Fluoro-4-[(7-methoxy-1,5-naphthyridin-4-yl)oxy]phenyl]-5-(5-fluoropyridin-2-yl)-4-hydroxy-2,6-dimethylpyridine-3-carboxamide] |
| ≤ 100 | ≤ 100 | COc1cc2nccc(Oc3ccc(NC(=O)c4cccn(-c5ccc(F)cn5)c4=O)cc3F)c2nc1OC [Compound 42, N-[4-[(6,7-Dimethoxy-1,5-naphthyridin-4-yl)oxy]-3-fluorophenyl]-1-(5-fluoropyridin-2-yl)-2-oxopyridine-3-carboxamide] |

Reference: patent publication US20230151003A1, “COMPOUNDS AND METHODS OF USE” (Exelixis, Inc., priority 2020, published 2023)
